Article PMC9825622, “Leveraging molecular structure and bioactivity with chemical language models for de novo drug design” (Nature Communications, 2023)

Assays:
PI3Kγ = molecular target: T1, PI3Kγ (Homo sapiens, UniProt P48736); assay: KINOMEscan biochemical kinase binding assay (Kd determination); conditions: for experimentally determined binding constant Kd: Fig. 4, commercially available compounds, absence of a value (−) = no observed binding; for Kd: average of N = 2 independent experiments
T1 construct: purchased Eurofins Discovery (KINOMEscan, fee-for-service)
T1 sequence (P48736 whole entry): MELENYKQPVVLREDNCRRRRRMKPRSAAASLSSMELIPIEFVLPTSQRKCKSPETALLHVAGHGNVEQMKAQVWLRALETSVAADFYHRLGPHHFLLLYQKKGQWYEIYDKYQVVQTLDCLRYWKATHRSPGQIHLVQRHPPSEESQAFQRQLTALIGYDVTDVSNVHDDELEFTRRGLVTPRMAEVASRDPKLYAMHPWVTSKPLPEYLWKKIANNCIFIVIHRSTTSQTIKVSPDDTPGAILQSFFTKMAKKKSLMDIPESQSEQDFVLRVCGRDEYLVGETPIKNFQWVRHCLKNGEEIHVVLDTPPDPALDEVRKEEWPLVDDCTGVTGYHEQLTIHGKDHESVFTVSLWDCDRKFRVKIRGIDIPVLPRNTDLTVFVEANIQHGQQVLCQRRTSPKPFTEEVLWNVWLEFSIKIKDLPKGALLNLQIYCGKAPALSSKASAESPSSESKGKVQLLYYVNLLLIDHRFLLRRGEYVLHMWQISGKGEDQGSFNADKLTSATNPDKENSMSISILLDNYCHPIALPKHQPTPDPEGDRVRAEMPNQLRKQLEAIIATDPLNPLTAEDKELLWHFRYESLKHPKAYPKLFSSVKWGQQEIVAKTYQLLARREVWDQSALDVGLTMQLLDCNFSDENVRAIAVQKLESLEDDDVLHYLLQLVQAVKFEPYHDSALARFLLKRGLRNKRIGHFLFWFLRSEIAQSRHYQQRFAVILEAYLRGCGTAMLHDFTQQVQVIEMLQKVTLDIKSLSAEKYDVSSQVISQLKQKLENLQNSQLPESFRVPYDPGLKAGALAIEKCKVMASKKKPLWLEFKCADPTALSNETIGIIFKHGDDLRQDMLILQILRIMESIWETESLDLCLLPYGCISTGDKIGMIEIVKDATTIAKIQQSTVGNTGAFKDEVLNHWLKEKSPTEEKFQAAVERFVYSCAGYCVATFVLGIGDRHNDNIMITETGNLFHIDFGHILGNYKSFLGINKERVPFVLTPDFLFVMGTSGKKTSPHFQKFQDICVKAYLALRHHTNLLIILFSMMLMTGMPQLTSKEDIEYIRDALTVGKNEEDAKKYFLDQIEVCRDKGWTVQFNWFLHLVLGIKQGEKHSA
Description: PI3Kγ binding assays were performed by Eurofins Discovery (https://www.eurofinsdiscoveryservices.com) on a fee-for-service basis. KINOMEscan™ was used to determine the dissociation constant Kd. […] Competition of the test compound with the immobilized ligand was measured via quantitative PCR (qPCR) of the DNA tag of DNA-tagged kinase. An 11-point three-fold serial dilution of each test compound was prepared in 100% DMSO at 100× final test concentration and subsequently diluted to 1× in the assay (final DMSO concentration = 1%). Dissociation constants were estimated with a standard dose-response curve using the Hill equation (Eq. 4)[71]:4 Response=Background+Signal−Background/1+KdHillslope/Dose^HillSlope, where the Hill slope was set to −1. Curves were fitted using a nonlinear least square fit with the Levenberg–Marquardt algorithm[72],[73].

[1] = system: HD-MB03 medulloblastoma cells; assay: CellTiter-Glo cell viability/proliferation assay; format: cell-based, human; conditions: for IC50: Homo sapiens, HD-MB03, 72 h, 72 h exposure, medium supplemented with FBS, read-out: IC50 (CellTiter-Glo viability, best-fit)
Description: HD-MBO3 Group 3 medulloblastoma cells were cultured in RPMI medium supplemented with 10% fetal bovine serum (FBS, both from Sigma-Aldrich, St. Louis, USA), 1% Penicillin-Streptomycin, and 1% GlutaMAX (both from Gibco/Thermo Fisher Scientific, Waltham, USA). The cells were maintained at 37 °C in a humidified atmosphere containing 5% CO2. […] DMSO was used as solvent control in all assays.
Cell viability was determined using CellTiter-Glo® 2.0 Cell Viability Assay (G9242, Promega, Madison, USA). About 500 cells per 20 μl were seeded in a flat bottom 384-well plate (781098, Greiner bio-one, Kremsmünster, Austria). Increasing concentrations of compounds were deposited on cells using an HP Digital Drug Dispenser (Hewlett-Packard, Palo Alto, USA) with DMSO total volume normalization. After 72 h, the CellTiter-Glo reagent was added (volume/volume) following the manufacturer’s instructions. Luminescence representing the number of viable cells was quantified with a Cytation 3 imaging reader (BioTek, Winooski, USA). […] Prism 9 software (GraphPad Software, San Diego, CA, USA) was used to calculate best-fit values of inhibitor vs. normalized response and to predict IC50.

PI3Kα = conditions: cited from earlier work
PI3Kδ = conditions: cited from earlier work

Structure (SMILES): COc1ccc(Nc2nc(-c3ccc(Br)cc3)nc3ccccc23)cc1OC [Compound 10]
- experimentally determined binding constant Kd (PI3Kγ): no observed binding

Structure (SMILES): COc1ccc(-c2noc(-c3ccc(O)cc3)n2)cc1OC [Compound 13]
- experimentally determined binding constant Kd (PI3Kγ): no observed binding

Structure (SMILES): COc1ccc(C(=O)Nc2ccc3ccccc3c2)cc1OC [Compound 8]
- experimentally determined binding constant Kd (PI3Kγ): no observed binding

Structure (SMILES): COc1ccc(-c2cnc(N)cc2C)cc1OC [Compound 6]
- experimentally determined binding constant Kd (PI3Kγ): no observed binding

Structure (SMILES): COc1ccc(-c2cnoc2-c2cc(OC)c(OC)c(OC)c2)cc1O [Compound 16]
- experimentally determined binding constant Kd (PI3Kγ): no observed binding

Structure (SMILES): COc1ccc(-c2nc(CCl)c(C)o2)cc1OC [Compound 14]
- experimentally determined binding constant Kd (PI3Kγ): no observed binding

Structure (SMILES): CC(C)n1nc(-c2cc(Cl)c(O)c(C3CC3)c2)c2c(N)ncnc21 [Compound 20]
- Kd (PI3Kγ): 120 nM

Structure (SMILES): COc1ccc(-c2nnc(CCl)o2)cc1OC [Compound 11]
- experimentally determined binding constant Kd (PI3Kγ): no observed binding

Structure (SMILES): COc1ccc(-c2cc(C(F)(F)F)n3ncc(C#N)c3n2)cc1OC [Compound 2]
- PI3Kγ activity in vitro (biochemical assay), in words (PI3Kγ): inactive in vitro
- experimentally determined binding constant Kd (PI3Kγ): no observed binding

Structure (SMILES): COc1ccc(-c2cc(C(F)F)n3ncc(C#N)c3n2)cc1OC [Compound 4]
- PI3Kγ activity in vitro (biochemical assay), in words (PI3Kγ): inactive in vitro
- experimentally determined binding constant Kd (PI3Kγ): no observed binding

Structure (SMILES): COc1ccc(-c2nc(CN)no2)cc1OC [Compound 12]
- experimentally determined binding constant Kd (PI3Kγ): no observed binding

Structure (SMILES): CC(C)n1nc(-c2cc(C3CC3)c(O)c(C3CC3)c2)c2c(N)ncnc21 [Compound 21]
- Kd (PI3Kγ): 290 nM

Structure (SMILES): COc1c(OCCCN2CCOCC2)ccc2c1N=C(NC(=O)c1cnc(N)nc1)N1CCN=C21 [copanlisib, Copanlisib]
- IC50 [1]: 19.4 nM
- inhibitory activity against PI3Kα (PI3Kα): sub-nanomolar
- inhibitory activity against PI3Kδ (PI3Kδ): sub-nanomolar

Structure (SMILES): COc1ccc(-c2nc(-c3ccc(F)cc3)no2)cc1OC [Compound 3]
- experimentally determined binding constant Kd (PI3Kγ): no observed binding

Structure (SMILES): CC(C)n1nc(-c2cc(Cl)c(O)c(Cl)c2)c2c(N)ncnc21 [Compound 22]
- Kd (PI3Kγ): 13 nM
- effect on viability at 100 nM ([1]; 100 nM concentration): neither 18 nor 22 caused a significant reduction in viability
- IC50 [1]: 188 nM

Structure (SMILES): COc1ccc(-c2nnc(C(C)C)s2)cc1OC [Compound 5]
- experimentally determined binding constant Kd (PI3Kγ): no observed binding

Structure (SMILES): COc1ccc(Nc2ncccc2[N+](=O)[O-])cc1OC [Compound 15]
- experimentally determined binding constant Kd (PI3Kγ): no observed binding

Structure (SMILES): COc1ccc(-c2cc(CCl)no2)cc1OC [Compound 7]
- experimentally determined binding constant Kd (PI3Kγ): no observed binding

Structure (SMILES): COc1ccc(-c2nc(-c3ccc(F)cc3)c(-c3ccc(F)cc3)[nH]2)cc1O [Compound 9]
- experimentally determined binding constant Kd (PI3Kγ): no observed binding
